Data reported in patent US20250353873A1, “COMPOUNDS AND METHODS FOR MODULATING APOE EXPRESSION” (Ionis Pharmaceuticals, Inc., priority 2024, published 2025).
Strand notation (5' to 3'): a small letter for the sugar, then the base; units joined by * are phosphorothioate-linked, units joined directly phosphodiester-linked; [ ] holds rarer units or linkages, { } end groups; capitals alone tell only the bases. [ms] = mesyl phosphoramidate linkage; e = 2'-O-(2-methoxyethyl) (MOE); [5mC] = 5-methylcytosine; d = 2'-deoxy (DNA)

System: human APOE RNA
Assay: Dose-dependent inhibition of human APOE RNA in HepG2 cells, electroporation, 24 hours (Example 6)
Assay type: cell-based
Summary of the method: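 HepG2 cells, 50,000 per well, electroporated with various oligonucleotide concentrations. APOE RNA measured with primer probe set RTS3073, normalized to GAPDH (RTS104), expressed as % of untreated control; IC50 then calculated.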

Substance: 1693105: 6-10-4 MOE gapmer CTTGGTGAATCTTTATTAAA, linkages sosssszzzssssszssss (e[5mC]*eTeT*eG*eG*eT*dG[ms]dA[ms]dA[ms]dT*d[5mC]*dT*dT*dT*dA[ms]dT*eT*eA*eA*eA) [compound 1693105]
- IC50: 1.1 µM
- APOE RNA (% UTC) (5 nM): 117 % UTC
- APOE RNA (% UTC) (13 nM): 104 % UTC
- APOE RNA (% UTC) (33 nM): 118 % UTC
- APOE RNA (% UTC) (82 nM): 91 % UTC
- APOE RNA (% UTC) (205 nM): 101 % UTC
- APOE RNA (% UTC) (512 nM): 59 % UTC
- APOE RNA (% UTC) (1,280 nM): 43 % UTC
- APOE RNA (% UTC) (3,200 nM): 23 % UTC
- APOE RNA (% UTC) (8,000 nM): 21 % UTC
- APOE RNA (% UTC) (20,000 nM): 6 % UTC
